Laboratory results published in US20250195513A1, “DEGRADATION OF IRAK4 BY CONJUGATION OF IRAK4 INHIBITORS WITH E3 LIGASE LIGAND AND METHODS OF USE” (BeiGene, Ltd., priority 2022, published 2025).
Read-outs that look alike come from different tables or passages of the source.

Molecular target: T1, IRAK4 (Homo sapiens, UniProt Q9NWZ3)
T1 construct: endogenous in cells; host or cells: Karpas299
T1 sequence (Q9NWZ3 1-460): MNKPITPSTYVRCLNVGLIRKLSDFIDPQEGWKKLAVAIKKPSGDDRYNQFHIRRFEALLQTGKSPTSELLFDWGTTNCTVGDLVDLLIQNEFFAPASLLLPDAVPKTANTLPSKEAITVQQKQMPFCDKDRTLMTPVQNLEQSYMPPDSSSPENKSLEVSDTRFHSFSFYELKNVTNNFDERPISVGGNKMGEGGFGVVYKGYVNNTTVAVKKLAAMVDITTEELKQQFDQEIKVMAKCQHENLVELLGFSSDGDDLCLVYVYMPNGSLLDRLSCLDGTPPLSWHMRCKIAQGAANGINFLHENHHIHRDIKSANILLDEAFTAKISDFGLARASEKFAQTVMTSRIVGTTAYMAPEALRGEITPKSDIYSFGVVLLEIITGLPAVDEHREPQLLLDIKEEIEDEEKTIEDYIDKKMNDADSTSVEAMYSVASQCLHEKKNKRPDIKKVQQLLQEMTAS
Assay: IRAK4 Degradation Assay (Karpas299, HTRF/TR-FRET)
Type: cell-based
Method in brief: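 Karpas299 cells at 0.2 million per well were exposed to serially diluted compounds for 24 h or 5 h, then lysed. IRAK4 remaining in lysates was quantified by HTRF (665/620 nm) after overnight antibody incubation at room temperature. Percent degradation was fitted to a four-parameter curve to give IC50 (DC50).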

[1] = Karpas-299 cells, 24 h treatment, maximum percentage of degradation, read-out: IRAK4 in Karpas-299 (24 h) Dmax (%)
[2] = Karpas-299 cells, 24 h treatment, read-out: IRAK4 in Karpas-299 (24 h) DC50
[3] = Karpas-299 cells, 5 h treatment, maximum percentage of degradation, read-out: IRAK4 in Karpas-299 (5 h) Dmax (%)
[4] = Karpas-299 cells, 5 h treatment, read-out: IRAK4 in Karpas-299 (5 h) DC50

| Dmax [1] | DC50 [2] | Dmax [3] | DC50 [4] | DC50 (Degradation (Karpas-299), comparison table, Linker Type A, read-out: Compound (Linker Type A) DC50) | Dmax (Degradation (Karpas-299), comparison table, Linker Type A, read-out: Compound (Linker Type A) Dmax (%)) | Compound |
| --- | --- | --- | --- | --- | --- | --- |
| 96% | 5.7 nM |  |  |  |  | CC(C)(O)c1cc2nn(C3CCN(C4CCN(C(=O)[C@@H]5CCN(c6ccc(N7CCC(=O)NC7=O)cc6)C5)CC4)CC3)cc2cc1NC(=O)c1cccc(C(F)(F)F)n1 [Example 162, (R)—N-(2-(1′-(1-(4-(2,4-dioxotetrahydropyrimidin-1(2H)-yl)phenyl)pyrrolidine-3-carbonyl)-[1,4′-bipiperidin]-4-yl)-6-(2-hydroxypropan-2-yl)-2H-indazol-5-yl)-6-(trifluoromethyl)picolinamide] |
| 99% | 4.2 nM |  |  |  |  | COc1cc2nn([C@H]3CC[C@H](N4CCN(CCc5cc(F)c([C@H]6CCC(=O)NC6=O)c(F)c5)CC4)CC3)cc2cc1NC(=O)c1cccc(C(F)(F)F)n1 [Example 120, N-(2-((1R,4r)-4-(4-(4-((R)-2,6-dioxopiperidin-3-yl)-3,5-difluorophenethyl)piperazin-1-yl)cyclohexyl)-6-methoxy-2H-indazol-5-yl)-6-(trifluoromethyl)picolinamide] |
| 94% | 3.2 nM |  |  |  |  | N#Cc1cnn2c(C(=O)Nc3cc4cn([C@H]5CC[C@H](N6CCN(CCc7cc(F)c([C@H]8CCC(=O)NC8=O)c(F)c7)CC6)CC5)nc4c4c3OC(F)(F)O4)ccc2c1 [Example 386, 3-cyano-N-(2-((1R,4r)-4-(4-(4-((R)-2,6-dioxopiperidin-3-yl)-3,5-difluorophenethyl)piperazin-1-yl)cyclohexyl)-7,7-difluoro-2H-[1,3]dioxolo[4,5-g]indazol-5-yl)pyrrolo[1,2-b]pyridazine-7-carboxamide] |
| 96% | 2.3 nM |  |  |  |  | CC(C)(O)c1cc2nn(C3CCN([C@@H]4CCN(C(=O)C5CN(c6cc(F)c([C@H]7CCC(=O)NC7=O)c(F)c6)C5)CC4(F)F)CC3)cc2cc1NC(=O)c1ccc2cc(C#N)cnn12 [Example 288, 3-cyano-N-(2-((R)-1′-(1-(4-((R)-2,6-dioxopiperidin-3-yl)-3,5-difluorophenyl)azetidine-3-carbonyl)-3′,3′-difluoro-[1,4′-bipiperidin]-4-yl)-6-(2-hydroxypropan-2-yl)-2H-indazol-5-yl)pyrrolo[1,2-b]pyridazine-7-carboxamide] |
| 30% | > 10000 nM |  |  |  |  | O=C1CCN(c2ccc(N3CC[C@H](C(=O)N4CCN([C@H]5CC[C@H](n6cc(NC(=O)c7coc(-c8ccnc(NCC(F)(F)F)c8)n7)c(C(F)F)n6)CC5)CC4)C3)cc2)C(=O)N1 [Example 15, N-(3-(difluoromethyl)-1-((1S,4r)-4-(4-((S)-1-(4-(2,4-dioxotetrahydropyrimidin-1(2H)-yl)phenyl)pyrrolidine-3-carbonyl)piperazin-1-yl)cyclohexyl)-1H-pyrazol-4-yl)-2-(2-((2,2,2-trifluoroethyl)amino)pyridin-4-yl)oxazole-4-carboxamide] |
| 9% | > 10000 nM |  |  |  |  | CC(C)(O)c1cc2nn([C@H]3CC[C@H](N4CCN(C(=O)C5CN(c6cc(F)c([C@H]7CCC(=O)NC7=O)c(F)c6)C5)CC4)CC3)cc2cc1NC(=O)c1cnn2cc(C#N)cnc12 [Example 411, 6-cyano-N-(2-((1r,4r)-4-(4-(1-(4-((R)-2,6-dioxopiperidin-3-yl)-3,5-difluorophenyl)azetidine-3-carbonyl)piperazin-1-yl)cyclohexyl)-6-(2-hydroxypropan-2-yl)-2H-indazol-5-yl)pyrazolo[1,5-a]pyrimidine-3-carboxamide] |
| 95% | 1 nM |  |  |  |  | O=C1CC[C@H](c2c(F)cc(N3CC(CN4CCN([C@H]5CC[C@H](n6cc(NC(=O)c7coc(-c8ccnc(NCC(F)(F)F)c8)n7)c(C(F)F)n6)CC5)CC4)C3)cc2F)C(=O)N1 [Example 19, N-(3-(difluoromethyl)-1-((1r,4r)-4-(4-((1-(4-((R)-2,6-dioxopiperidin-3-yl)-3,5-difluorophenyl)azetidin-3-yl)methyl)piperazin-1-yl)cyclohexyl)-1H-pyrazol-4-yl)-2-(2-((2,2,2-trifluoroethyl)amino)pyridin-4-yl)oxazole-4-carboxamide] |
| 42% | > 1000 nM |  |  |  |  | N#Cc1cnc2c(C(=O)Nc3ccc4nn([C@H]5CC[C@H](N6CCN(C7CN(c8cc(F)c([C@H]9CCC(=O)NC9=O)c(F)c8)C7)CC6)CC5)cc4c3)cnn2c1 [Example 424, 6-cyano-N-(2-((1R,4r)-4-(4-(1-(4-((R)-2,6-dioxopiperidin-3-yl)-3,5-difluorophenyl)azetidin-3-yl)piperazin-1-yl)cyclohexyl)-2H-indazol-5-yl)pyrazolo[1,5-a]pyrimidine-3-carboxamide] |
| 97% | 1.2 nM |  |  |  |  | O=C1CC[C@H](c2c(F)cc(N3CC[C@@H](C(=O)N4CCN([C@H]5CC[C@H](n6cc(NC(=O)c7coc(-c8ccnc(NCC9CC9)c8)n7)c(C(F)F)n6)CC5)C(=O)C4)C3)cc2F)C(=O)N1 [Example 101, 2-(2-((cyclopropylmethyl)amino)pyridin-4-yl)-N-(3-(difluoromethyl)-1-((1R,4r)-4-(4-((R)-1-(4-((R)-2,6-dioxopiperidin-3-yl)-3,5-difluorophenyl)pyrrolidine-3-carbonyl)-2-oxopiperazin-1-yl)cyclohexyl)-1H-pyrazol-4-yl)oxazole-4-carboxamide] |
| 97% | 3.2 nM |  |  |  |  | O=C1CCN(c2c(F)cc(N3CC(C(=O)N4CCN([C@H]5CC[C@H](n6cc(NC(=O)c7coc(-c8ccnc(NCC(F)(F)F)c8)n7)c(C(F)F)n6)CC5)CC4)C3)cc2F)C(=O)N1 [Example 76, N-(3-(difluoromethyl)-1-((1r,4r)-4-(4-(1-(4-(2,4-dioxotetrahydropyrimidin-1(2H)-yl)-3,5-difluorophenyl)azetidine-3-carbonyl)piperazin-1-yl)cyclohexyl)-1H-pyrazol-4-yl)-2-(2-((2,2,2-trifluoroethyl)amino)pyridin-4-yl)oxazole-4-carboxamide] |
| 96% | 5.8 nM | 89% | 8.2 nM |  |  | Cc1cc(-c2nc(C(=O)Nc3cn(-c4ccc(N5CCN(C(=O)C6CN(c7ccc(N8CCC(=O)NC8=O)cc7)C6)CC5)nc4)nc3C(N)=O)co2)ccn1 [Example 31, N-(3-carbamoyl-1-(6-(4-(1-(4-(2,4-dioxotetrahydropyrimidin-1(2H)-yl)phenyl)azetidine-3-carbonyl)piperazin-1-yl)pyridin-3-yl)-1H-pyrazol-4-yl)-2-(2-methylpyridin-4-yl)oxazole-4-carboxamide] |
| 99% | 0.2 nM |  |  |  |  | CC(C)(O)c1cc2nn([C@H]3CC[C@H](CN4CCN(C5CN(c6cc(F)c([C@H]7CCC(=O)NC7=O)c(F)c6)C5)CC4)CC3)cc2cc1NC(=O)c1csc(-c2cn[nH]c2)n1 [Example 433, N-(2-((1r,4r)-4-((4-(1-(4-((R)-2,6-dioxopiperidin-3-yl)-3,5-difluorophenyl)azetidin-3-yl)piperazin-1-yl)methyl)cyclohexyl)-6-(2-hydroxypropan-2-yl)-2H-indazol-5-yl)-2-(1H-pyrazol-4-yl)thiazole-4-carboxamide] |
| 46% | > 10000 nM |  |  | > 10000 nM | 46% | O=C1CC[C@H](c2c(F)cc(CCN3CCN(C[C@H]4CC[C@H](n5cc(NC(=O)c6coc(-c7ccnc(NCC(F)(F)F)c7)n6)c(C(F)F)n5)CC4)CC3)cc2F)C(=O)N1 [Example 1, N-(3-(difluoromethyl)-1-((1R,4r)-4-((4-(4-((R)-2,6-dioxopiperidin-3-yl)-3,5-difluorophenethyl)piperazin-1-yl)methyl)cyclohexyl)-1H-pyrazol-4-yl)-2-(2-((2,2,2-trifluoroethyl)amino)pyridin-4-yl)oxazole-4-carboxamide] |
| 97% | 1.6 nM | 94% | 2.4 nM |  |  | NC(=O)c1nn([C@H]2CC[C@H](N3CCN(C(=O)C4CN(c5cc(F)c([C@H]6CCC(=O)NC6=O)c(F)c5)C4)CC3)CC2)cc1NC(=O)c1coc(-c2ccnc(NCC(F)(F)F)c2)n1 [Example 11, N-(3-carbamoyl-1-((1r,4r)-4-(4-(1-(4-((R)-2,6-dioxopiperidin-3-yl)-3,5-difluorophenyl)azetidine-3-carbonyl)piperazin-1-yl)cyclohexyl)-1H-pyrazol-4-yl)-2-(2-((2,2,2-trifluoroethyl)amino)pyridin-4-yl)oxazole-4-carboxamide] |
| 99% | 0.6 nM |  |  |  |  | O=C1CC[C@H](c2c(F)cc(N3CC(C(=O)N4CCN([C@H]5CC[C@H](n6cc7cc(NC(=O)c8cccc(C(F)(F)F)n8)c(OC8COC8)nc7n6)CC5)CC4)C3)cc2F)C(=O)N1 [Example 98, N-(2-((1r,4r)-4-(4-(1-(4-((R)-2,6-dioxopiperidin-3-yl)-3,5-difluorophenyl)azetidine-3-carbonyl)piperazin-1-yl)cyclohexyl)-6-(oxetan-3-yloxy)-2H-pyrazolo[3,4-b]pyridin-5-yl)-6-(trifluoromethyl)picolinamide] |
